Results: patent US20050129680A1, “Antimicrobial activity of antibodies” (priority 2001, published 2005)
Where “and” joins values, the source holds several entries; their conditions need not be identical. Equal entries are not always repeated.

Legend:
[1] = Antibody/protein UV irradiation with Amplex Red quantitative assay for hydrogen peroxide; type: biochemical; settings: for reduction of ^1O2 (panel of other proteins): UV irradiation, PBS
Experimental: Aliquots (10 μL) were removed at timed intervals throughout the assay. H2O2 concentration was determined by the amplex red method. Each data point is reported as the mean±SEM of at least duplicate measurements: ? polyclonal (poly) immunoglobulin (Ig) G, human; O poly-IgG, horse; ? poly-IgG, sheep; ∇ monoclonal (m) IgG (WD1-6G6), murine; ? poly-IgM, human; ? mIgG (92H2), murine; ¦ β-galactosidase (β-gal); ? chick ovalbumin (OVA); ? a-lactalbumin (a-lact); ? bovine serum albumin (BSA).
Antibody/Protein Irradiation.
Quantitative Assay for Hydrogen Peroxide. An aliquot (20 μl) from the protein solution was removed and added into a well of a 96-well microtiter plate (Costar) containing reaction buffer (80 μl). Working solution (100 μl/400 μM Amplex Red reagent 1/2 units/ml horseradish peroxidase) was then added, and the plate was incubated in the dark for 30 min. The fluorescence of the well components was then measured using a CytoFluor Multiwell Plate Reader (Series 4000, PerSeptive Biosystems, Framingham, Mass.; Ex/Em: 530/580 nm). The hydrogen peroxide concentration was determined using a standard curve. All experiments were run in duplicate, and the rate is quoted as the mean of at least two measurements.
A suspension of crystals of the Fab fragment of 1D4 (2 μl) was diluted with PBS (198 μl, pH 7.4) and vortexed gently. Following centrifugation, the supernatant was removed, and the washing procedure was repeated twice further. The residual crystal suspension was then diluted into PBS, pH 7.4 (100 μl), and added into a well of a quartz ELISA plate. Following UV irradiation for 30 min, Amplex Red working solution (100 μl) was added, and the mixture was viewed on a fluorescence microscope.
Denaturation. […] The resultant solution was transferred to a glass, screw-cap vial and irradiated with UV light for 30 min. The concentration of H2O2 was determined after 30 min.

horse poly-IgG = settings: read-out: IC50 of H2O2 on the photo-production of H2O2 by horse poly-IgG; horse IgG 6.7 μM, H2O2 0-450 μM, near-UV
Experimental: Such a graph permits determination of the IC50 of H2O2 on the photo-production of H2O2 by horse poly-IgG. A solution of horse IgG (6.7 μM) was incubated with varying concentrations of H2O2 (0-450 μM) and the initial rate of H2O2 formation measured as described in FIG. 8A.

[2] = Decomposition of O3 under aqueous conditions; type: physicochemical; settings: PBS pH 7.4, 22° C.
Experimental: The rate of decomposition of O3 under the aqueous conditions employed was measured by the following method. Ozone, produced by a passage of O2 through a Polymetrics ozonizer, was bubbled for 2 min through a phosphate buffered saline (PBS, pH 7.4) solution in a quartz cuvette (1 cm^2) at room temperature. The time-dependent change in optical density was then measured at 260 nm (ε=2,700 M^−[…]) for at least 5 half lives in a Hitachi u.v./vis spectrophotometer equipped with a thermostatted rack at 22° C. See Takeuchi et al., Anal. Chim. Acta. 230, 183 (1990). […] The sensitivity of the assay was limited by spectrophotometer accuracy to ±0.1% (˜1 μM) of the OD at t=0.

E. coli = test: Bactericidal assay (CFU recovery), strain not singled out; type: cell-based; settings: 40 μM, white light 2.7 mW cm^−2, 1 h, PBS, 4±1° C.
Experimental: (§1) In a typical experiment, a culture of E. coli (in log phase growth, OD600=0.2-0.3) was repeatedly pelleted (3×3,500 rpm) and resuspended in PBS (pH 7.4). The PBS suspended cells were then added to glass vials and cooled to 4° C. […] Viability was determined by recovery of colony forming units (CFUs) on agar plates. Each experiment was performed at least in duplicate.
as §1, with “washed in PBS by pelleting” for “pelleted”, “rpm) the cells” for “rpm)”, “resuspending them” for “resuspended”

E. coli XL1-blue = test: Bactericidal assay (CFU recovery); type: cell-based; settings: catalase 13 mU/mL
Experimental: (§2) In a typical experiment, a culture of E. coli (in log phase growth, OD600=0.2-0.3) was repeatedly pelleted (3×3,500 rpm) and resuspended in PBS (pH 7.4). The PBS suspended cells were then added to glass vials and cooled to 4° C. Hematoporphyrin IX (40 μM) and antibody (20 μM) were added and the vials were either placed on a light box (visible light, 2.8 mW cm^−2) or in the dark at 4° C. and incubated for 1 h. Viability was determined by recovery of colony forming units (CFUs) on agar plates. Each experiment was performed at least in duplicate.
as §2, with “washed in PBS by pelleting” for “pelleted”, “rpm) the cells” for “rpm)”, “resuspending them” for “resuspended”

Molecule: β-galactosidase
- H2O2 generated during near-UV irradiation ([1]; near-UV irradiation, 6.7 μM): 5.9 mol eq.

Molecule: OO [Clone H2O2, hydrogen peroxide]
- IC50 (horse poly-IgG): ~225 µM and 225 µM

Molecule: O=[O+][O-] [Clone O3, ozone]
- half-life (t1/2) under aqueous conditions [2]: 1.1 min

Molecule: N[C@@H](Cc1c[nH]c2ccccc12)C(=O)O [tryptophan]
- H2O2 produced during near-UV photo-oxidation ([1]; near-UV irradiation, 20 μM): ca. 0.5 mole equivalents

Molecule: CC1=C(CCC(=O)O)c2cc3[nH]c(cc4nc(cc5[nH]c(cc1n2)c(C)c5C(C)O)C(C)=C4C(C)O)c(C)c3CCC(=O)O (centres unmarked) [hematoporphyrin IX]
- bactericidal activity of sensitizer alone (E. coli): negligible bactericidal activity

Molecule: catalase
- protection against the bactericidal activity of non-specific antibodies (E. coli XL1-blue): complete protection

B1: chick ovalbumin: chick-egg ovalbumin (protein, UniProt P01012 2-386, looked up)
Ovalbumin: GSIGAASMEFCFDVFKELKVHHANENIFYCPIAIMSALAMVYLGAKDSTRTQINKVVRFDKLPGFGDSIEAQCGTSVNVHSSLRDILNQITKPNDVYSFSLASRLYAEERYPILPEYLQCVKELYRGGLEPINFQTAADQARELINSWVESQTNGIIRNVLQPSSVDSQTAMVLVNAIVFKGLWEKAFKDEDTQAMPFRVTEQESKPVQMMYQIGLFRVASMASEKMKILELPFASGTMSMLVLLPDEVSGLEQLESIINFEKLTEWTSSNVMEERKIKVYLPRMKMEEKYNLTSVLMAMGITDVFSSSANLSGISSAESLKISQAVHAAHAEINEAGREVVGSAEAGVDAASVSEEFRADHPFLFCIKHIATNAVLFFGRCVSP
- reduction of ^1O2 (panel of other proteins) [1]: one of the most efficient proteins

B2: RNase A: ribonuclease, no Trp residues, several disulfide bonds (protein, UniProt P61823 27-150, looked up)
Ribonuclease pancreatic: KETAAAKFERQHMDSSTSAASSSNYCNQMMKSRNLTKDRCKPVNTFVHESLADVQAVCSQKNVACKNGQTNCYQSYSTMSITDCRETGSSKYPNCAYKTTQANKHIIVACEGNPYVPVHFDASV
- reduction of ^1O2 (panel of other proteins) [1]: do not reduce
